# Key:
# [1] = system: C2C12 cells; experiment: Gene expression levels in treated cultured cells; assay type: cell-based, mouse
# Experimental: Mouse striated muscle derived cells, i.e., C2C12 cells, were cultured and treated with OK-1, ICG-001, or C-82. Gene expression levels of cells treated with OK-1, ICG-001, or C-82, and untreated cells are compared.
# [2] = system: old mice (C57BL/6J); experiment: Treadmill test of muscle strength (endurance) in young and old mice; assay type: in vivo, mouse; conditions: intraperitoneal, twice a week over three months, 20 mg/kg/day; young (15-week) and old (79-week) mice
# Description: Decrease in endurance in old mice In order to confirm that a decrease in muscle strength is observed in mouse models (C57BL/6J) (purchased from Oriental Yeast), the muscle strength (endurance) in 15-week old young mice and 79-week-old old mice was investigated in a treadmill test in accordance with the following (FIG. 1A). Prior to recording the performance, mice were trained for 3 days to acclimate the mice to the equipment. Electric stimulation grid was adjusted to 1 mA, and the gradient was set to 15 degrees. On the first day of training, mice were induced to walk for 10 minutes at a rate of 10 m/minute, allowed to rest for 10 minutes, and then induced to walk for 10 minutes at a rate of 10 m/minute on a treadmill. On day 2 and day 3, the first two steps were the under the same conditions as day 1, and then the mice were induced to start walking at 10 m/minute. The speed was increased by 1 m/minute until reaching the maximum speed of 20 m/minute. On day 4, the maximum exercise endurance was measured. Six mice were placed on a treadmill, which was started at a belt speed of 5 m/minute for 5 minutes to let the mice warm up. The speed was increased 1 m/minute until reaching the maximum speed of 20 m/minute. After making the mice run for 5 minutes, the speed was increased from 20 m/minute to 21 m/minute for 10 minutes. The mice were then forced to run at 22 m/minute until stalling on the electric stimulation grid for 10 seconds. The distance traveled until stalling for 10 seconds was measured.
# (§1) OK-1 manufactured in Manufacturing Example 1 was intraperitoneally administered to young and old mice twice a week over three months. The dosage was 20 mg/kg/day.
# 74-week old mice (C57B16/J) were purchased from Oriental Yeast. […] Muscle strength (endurance) and grip strength of mice administered with C-82 were then measured through a treadmill test and smart grip strength meter for rats and mice (Muromachi Kikai Co., Ltd.), respectively. […]
# [3] = Body weight and behavior during the dosing period; assay type: in vivo, mouse; conditions: intraperitoneal, twice a week over three months, 20 mg/kg/day; young and old mice
# Experimental: as §1
# [4] = system: old mice; experiment: Muscle mass by MRI (volume of right gastrocnemius muscle/soleus muscle), with/without treadmill exercise; assay type: in vivo, mouse
# Experimental: OK-1 was then intraperitoneally administered to each mouse twice a week at 20 mg/kg/day over 8 weeks (i.e., until reaching 23 week old and 88 week old, respectively). Treadmill exercise was conducted three times a week at 8 m/minute for 5 minutes→15 m/minute for 35 minutes while administering OK-1 twice a week at 20 mg/kg/day over 5 weeks (i.e., until reaching 28 week old and 93 week old, respectively). The muscle mass was then measured with the following equipment and conditions through MRI (FIG. 1B). MRI (MRminiSA1545, Japan REDOX) (magnetic flux density: 1.5 tesla (permanent magnet) (temporal resolution: 100 ns) was used to capture images of the lower limbs of the mice. The recovered data was converted into dicom data, and the volume of right gastrocnemius muscle/soleus muscle was quantified with Osirix Lite.
# [5] = system: Activin Receptor and ACVR2B; conditions: cited from earlier work
molecule,measurement,setting,value
O=C1[C@H](Cc2ccc(O)cc2)N2C(=O)CCN(C(=O)NCc3ccccc3)[C@H]2CN1Cc1cccc2ccccc12 [ICG-001],gene expression levels versus untreated cells,[1],change in gene expression similar to Example 2
O=C1[C@H](Cc2ccc(O)cc2)N2C(=O)CCN(C(=O)NCc3ccccc3)[C@H]2CN1Cc1cccc2ccccc12 [compound 8],muscle strength (endurance) through a treadmill test,[2],increase in muscle strength due to administration of compound 8 was observed specifically in old mice
same,change in body weight and behavioral abnormality during the dosing period,[3],a significant change in body weight and behavioral abnormality were not observed
same,"muscle mass (MRI), combined use of administration with exercise",[4]; 20 mg/kg/day twice a week plus treadmill exercise three times a week over 5 weeks,muscle mass significantly recovers synergistically
same,muscle mass (MRI),"[4]; intraperitoneal 20 mg/kg/day twice a week over 8 weeks, then 5 further weeks",increases muscle mass in old mice
"Bimagrumab: monoclonal antibodies (bimagrumab) developed by targeting Activin Receptor and ACVR2B (antibody, chains of the INN, looked up, V domains shown) VH: QVQLVQSGAEVKKPGASVKVSCKASGYTFTSSYINWVRQAPGQGLEWMGTINPVSGSTSYAQKFQGRVTMTRDTSISTAYMELSRLRSDDTAVYYCARGGWFDYWGQGTLVTVSS VL: QSALTQPASVSGSPGQSITISCTGTSSDVGSYNYVNWYQQHPGKAPKLMIYGVSKRPSGVSNRFSGSKSGNTASLTISGLQAEDEADYYCGTFAGGSYYGVFGGGTKLTVL",muscle mass,[5]; background statement,promotes muscle differentiation to increase muscle mass
same,sarcopenia symptoms including the gait speed and grip strength,"[5]; phase 2 trial completed, development discontinued in 2018",has not resulted in dramatic improvement in sarcopenia symptoms including the gait speed and grip strength
